This passage reports EC50, IC50 and Emax results from US20240360075A1, “N-SUBSTITUTED C6 CYCLYL CARBOXAMIDE COMPOUNDS AND USES THEREOF” (ALCON INC., priority 2023, published 2024).

In experiment [1] the target is mouse cold-menthol receptor TRPM8 (Mus musculus, UniProt Q8R4D5). As to conditions: described by Behrendt et al.; cited from earlier work.
Experiment [2] has as its target TRPM8 (Mus musculus, UniProt Q8R4D5). The settings on record: TRPV1 antagonists, described by Behrendt et al.; read-out: IC50 to block the response of TRPM8 to menthol; cited from earlier work.
Experiment [3] addresses T1, TRPM8 (Homo sapiens, UniProt Q7Z2W7).
T1 construct: purchased Eurofins (Cerep) item #3316
The experiment is described as follows: TRPM8 Human Transient Potential Ion Channel Cell Based Agonist Calcium Flux Assay (Eurofins Cerep item #3316). As to conditions: for Emax: control activator ligand icilin, read-out: Percent Agonist; for EC50: room temperature. The source says: Compounds can be tested using the commercially available kit from Eurofins “TRPM8 Human Transient Potential Ion Channel Cell Based Agonist Calcium Flux Assay, Cerep” item #3316, or using the assay, referenced by Eurofins, and described in Behrendt et al. “Characterization of the mouse cold-menthol receptor TRPM8 and vanilloid receptor type-1 VR1 using a fluorometric imaging plate reader (FLIPR) assay,” Br J Pharmacol. 2004 Feb;141(4):737-45, which are each incorporated herein by reference. […] 4.
The assay is done at room temperature and measures calcium flux.

The target of experiment [4] is T1, TRPM8. The settings on record: reported by the Eurofins website; cited from earlier work.

Where two headings read alike, the source gives them in different places.

Sequence of TRPM8 (Mus musculus, UniProt Q8R4D5) (Q8R4D5 whole entry): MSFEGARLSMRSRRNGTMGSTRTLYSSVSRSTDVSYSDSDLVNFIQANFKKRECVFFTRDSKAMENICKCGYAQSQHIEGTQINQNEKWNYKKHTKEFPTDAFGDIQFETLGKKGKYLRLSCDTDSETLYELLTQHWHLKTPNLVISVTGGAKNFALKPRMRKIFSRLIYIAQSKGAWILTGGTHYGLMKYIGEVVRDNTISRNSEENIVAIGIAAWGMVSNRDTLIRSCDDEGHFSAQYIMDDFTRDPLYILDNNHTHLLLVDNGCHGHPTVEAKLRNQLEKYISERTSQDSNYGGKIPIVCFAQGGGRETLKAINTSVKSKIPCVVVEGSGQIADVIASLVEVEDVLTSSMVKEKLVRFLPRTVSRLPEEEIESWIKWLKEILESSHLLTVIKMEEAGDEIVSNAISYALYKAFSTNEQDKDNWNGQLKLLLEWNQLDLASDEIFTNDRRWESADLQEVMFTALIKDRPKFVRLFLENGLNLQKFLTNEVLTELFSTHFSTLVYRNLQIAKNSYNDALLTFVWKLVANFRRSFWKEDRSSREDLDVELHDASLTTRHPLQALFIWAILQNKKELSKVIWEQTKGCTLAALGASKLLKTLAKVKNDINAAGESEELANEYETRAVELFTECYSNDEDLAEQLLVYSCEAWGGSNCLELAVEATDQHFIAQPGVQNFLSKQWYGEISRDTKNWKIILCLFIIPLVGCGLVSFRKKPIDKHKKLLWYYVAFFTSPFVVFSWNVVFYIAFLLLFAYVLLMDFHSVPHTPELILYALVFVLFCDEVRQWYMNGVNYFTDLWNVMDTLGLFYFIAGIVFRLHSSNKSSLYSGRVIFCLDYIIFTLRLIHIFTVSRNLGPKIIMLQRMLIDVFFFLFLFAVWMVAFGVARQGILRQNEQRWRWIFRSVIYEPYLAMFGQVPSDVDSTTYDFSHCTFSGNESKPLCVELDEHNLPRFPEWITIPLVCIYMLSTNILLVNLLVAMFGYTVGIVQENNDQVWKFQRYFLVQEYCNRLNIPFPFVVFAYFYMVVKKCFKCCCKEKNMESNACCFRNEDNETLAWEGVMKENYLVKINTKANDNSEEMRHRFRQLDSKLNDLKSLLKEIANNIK
Sequence of mouse cold-menthol receptor TRPM8 (Q8R4D5 whole entry): as above
T1 sequence (Q7Z2W7 whole entry): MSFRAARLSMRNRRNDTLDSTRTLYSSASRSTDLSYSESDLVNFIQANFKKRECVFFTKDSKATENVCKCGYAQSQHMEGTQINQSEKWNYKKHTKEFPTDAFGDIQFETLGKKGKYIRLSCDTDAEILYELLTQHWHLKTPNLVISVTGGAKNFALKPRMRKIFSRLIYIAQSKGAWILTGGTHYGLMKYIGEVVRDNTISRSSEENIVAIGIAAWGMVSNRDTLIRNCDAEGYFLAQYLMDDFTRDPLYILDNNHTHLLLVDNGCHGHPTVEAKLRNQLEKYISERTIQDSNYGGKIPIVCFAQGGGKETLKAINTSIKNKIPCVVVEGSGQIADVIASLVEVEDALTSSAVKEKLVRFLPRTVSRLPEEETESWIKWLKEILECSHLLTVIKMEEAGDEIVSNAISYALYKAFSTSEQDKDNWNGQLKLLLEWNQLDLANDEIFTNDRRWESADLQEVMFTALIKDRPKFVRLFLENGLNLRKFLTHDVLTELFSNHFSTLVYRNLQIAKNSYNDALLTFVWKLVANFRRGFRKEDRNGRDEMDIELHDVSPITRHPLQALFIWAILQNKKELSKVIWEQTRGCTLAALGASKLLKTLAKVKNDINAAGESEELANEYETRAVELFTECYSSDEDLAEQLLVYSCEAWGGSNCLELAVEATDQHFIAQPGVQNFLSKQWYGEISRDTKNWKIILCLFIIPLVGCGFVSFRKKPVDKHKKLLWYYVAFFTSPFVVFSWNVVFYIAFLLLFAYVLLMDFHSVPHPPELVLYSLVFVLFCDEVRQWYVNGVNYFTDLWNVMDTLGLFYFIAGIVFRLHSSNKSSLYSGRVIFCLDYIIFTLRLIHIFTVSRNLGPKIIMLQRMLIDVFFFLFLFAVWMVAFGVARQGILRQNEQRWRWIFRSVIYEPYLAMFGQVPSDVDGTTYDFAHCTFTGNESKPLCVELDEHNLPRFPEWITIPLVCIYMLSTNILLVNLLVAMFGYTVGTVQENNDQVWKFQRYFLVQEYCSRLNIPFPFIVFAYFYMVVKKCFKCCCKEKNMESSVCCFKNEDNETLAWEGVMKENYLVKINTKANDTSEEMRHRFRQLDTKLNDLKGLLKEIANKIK

A word on the EC50: it is the concentration needed to bring the measured effect to its halfway point. With `CC(C)[C@H]1CC[C@H](C)C[C@@H]1O` [(+)menthol], in experiment [1], the EC50 is 14.4 ± 1.3 µM. Regarding `CC(C)[C@@H]1CC[C@@H](C)C[C@H]1O` [(−)menthol], in experiment [1], the EC50 is 4.1 ± 1.3 µM. The IC50 is the concentration that inhibits the measured activity by half. Take `CC(C)(C)c1ccc(NC(=O)N2CCN(c3ncccc3Cl)CC2)cc1` [BCTC, 4-(3-Chloro-2-pyridinyl)-N-[4-(1,1-dimethylethyl)phenyl]-1-piperazinecarboxamide]: the IC50 on TRPM8 [2] was 0.8 ± 1 µM. As to `CC(C)[C@@H]1CC[C@@H](C)C[C@H]1C(=O)NC(=N)N` [Compound 69], at TRPM8 [3], the Emax was over 75%. Moreover, the EC50 on TRPM8 [3] (no unit printed in this row) was under 10 µM. For `CC(C)[C@@H]1CC[C@@H](C)C[C@H]1C(=O)Nc1cnn(CCO)c1` [Compound 70], at TRPM8 [3], the Emax was over 75% and the EC50 was under 1 µM. Taken in the same sequence, the figures for `COC(=O)c1cc(NC(=O)[C@@H]2C[C@H](C)CC[C@H]2C(C)C)ccn1` [Compound 72] were over 75% and under 5 µM. Taken in the same sequence, the figures for `CC(C)[C@@H]1CC[C@@H](C)C[C@H]1C(=O)Nc1ccc(N2CCOCC2)nc1` [Compound 73] were over 50% and under 0.1 µM. Taken in the same sequence, the figures for `COc1ccc(NC(=O)[C@@H]2C[C@H](C)CC[C@H]2C(C)C)cn1` [Compound 74] were over 50% and under 0.1 µM. Regarding `COc1ccc(NC(=O)[C@@H]2C[C@H](C)CC[C@H]2C(C)C)nc1Cl` [Compound 75], on TRPM8 [3], the Emax was over 75% and the EC50 is under 5 µM.

In the case of `CCOc1ccc(NC(=O)[C@@H]2C[C@H](C)CC[C@H]2C(C)C)cn1` [Compound 76], on TRPM8 [3], the Emax was over 50% and the EC50 is under 0.1 µM. Taken in the same sequence, the figures for `CC(C)[C@@H]1CC[C@@H](C)C[C@H]1C(=O)Nc1ccnc(CN(C)C)c1` [Compound 77] were over 50% and under 5 µM.

For the compound `COC(=O)c1ccc(NC(=O)[C@@H]2C[C@H](C)CC[C@H]2C(C)C)cn1` [Compound 78], on TRPM8 [3], the Emax was over 75% and the EC50 is under 0.5 µM.

With `CC(C)[C@@H]1CC[C@@H](C)C[C@H]1C(=O)Nc1ccc(B2OC(C)(C)C(C)(C)O2)cn1` [Compound 79], at TRPM8 [3], the Emax was over 75% and the half-maximal effective concentration (EC50) is under 2 µM. Taken in the same sequence, the figures for `CC(C)[C@@H]1CC[C@@H](C)C[C@H]1C(=O)Nc1cncc(Cl)c1` [Compound 80] were over 75% and under 1 µM. Taken in the same sequence, the figures for `COc1ccc(NC(=O)[C@@H]2C[C@H](C)CC[C@H]2C(C)C)c(F)n1` [Compound 81] were over 100% and under 0.1 µM. Taken in the same sequence, the figures for `COc1ncc(NC(=O)[C@@H]2C[C@H](C)CC[C@H]2C(C)C)cc1F` [Compound 82] were over 75% and under 0.5 µM. As for `CC(C)[C@@H]1CC[C@@H](C)C[C@H]1C(=O)Nc1ccncn1` [Compound 83], at TRPM8 [3], the Emax was over 75% and the EC50 was under 5 µM. Taken in the same sequence, the figures for `CC(C)[C@@H]1CC[C@@H](C)C[C@H]1C(=O)Nc1ccc(S(C)(=O)=O)nc1` [Compound 84] were over 75% and under 0.1 µM. For `CC(C)[C@@H]1CC[C@@H](C)C[C@H]1C(=O)Nc1ccc(Cl)cn1` [Compound 86], on TRPM8 [3], the Emax is over 100% and the EC50 was under 5 µM. Taken in the same sequence, the figures for `COc1ncc(NC(=O)[C@@H]2C[C@H](C)CC[C@H]2C(C)C)cc1C` [Compound 88] were over 35% and under 5 µM. As to `CC(C)[C@@H]1CC[C@@H](C)C[C@H]1C(=O)NCC1CC1(F)F` (stereo partly shown) [Compound 89], on TRPM8 [3], the Emax is over 75% and the EC50 was under 1 µM. Taken in the same sequence, the figures for `CC(C)[C@@H]1CC[C@@H](C)C[C@H]1C(=O)NCCC1CC1(F)F` (stereo partly shown) [Compound 91] were over 75% and under 1 µM.

`CC(C)[C@@H]1CC[C@@H](C)C[C@H]1C(=O)NCC1(C#N)CC1` [Compound 93]: on TRPM8 [3], the Emax is over 75% and the EC50 was under 10 µM. Taken in the same sequence, the figures for `CC(C)[C@@H]1CC[C@@H](C)C[C@H]1C(=O)N[C@H]1CCC(F)(F)C1` [Compound 94] were over 75% and under 0.5 µM. For the compound `CC(C)[C@@H]1CC[C@@H](C)C[C@H]1C(=O)N1CC(C)(CC(F)F)C1` [Compound 95], at TRPM8 [3], the EC50 is over 10 µM. Still for that read-out and setting: for `CC(C)[C@@H]1CC[C@@H](C)C[C@H]1C(=O)NCC#N` [Compound 97] the value was over 10 µM. On to `CC(C)[C@@H]1CC[C@@H](C)C[C@H]1C(=O)N[C@@H]1CCC(F)(F)C1` [Compound 98], for which, at TRPM8 [3], the Emax is over 75% and the EC50 is under 0.5 µM.

As for `CC(C)[C@@H]1CC[C@@H](C)C[C@H]1C(=O)NCCC#N` [Compound 99], at TRPM8 [3], the Emax was over 75% and the EC50 is under 10 µM. Take `CC(C)[C@@H]1CC[C@@H](C)C[C@H]1C(=O)NN1CCOCC1` [Compound 100]: the Emax at TRPM8 [3] was over 35%. On to `C#CCNC(=O)[C@@H]1C[C@H](C)CC[C@H]1C(C)C` [Compound 101], for which, on TRPM8 [3], the Emax is over 75% and the EC50 is under 5 µM. As for `CC(C)[C@@H]1CC[C@@H](C)C[C@H]1C(=O)NC1CCC(S(C)(=O)=O)C1` (stereo partly shown) [Compound 106], on TRPM8 [3], the Emax is over 50% and the EC50 was under 10 µM. Taken in the same sequence, the figures for `C=C(C)[C@@H]1CC[C@@H](C)C[C@H]1C(=O)Nc1ccc(OC)cc1` [Compound 107] were over 100% and under 0.5 µM. In the case of `COc1ccc(NC(=O)[C@@H]2C[C@H](C)CC[C@H]2C(C)=O)cc1` [Compound 108], at TRPM8 [3], the Emax is over 5% and the EC50 was over 10 µM. On to `COC(=O)C12CC(NC(=O)c3cc(C)ccc3C(C)C)(C1)C2` [Compound 170], for which, on TRPM8 [3], the Emax is over 75% and the EC50 was under 5 µM. `COC12CCC(NC(=O)[C@H]3CCC[C@@H](N)C3)(CC1)CC2` [Compound 171]: on TRPM8 [3], the EC50 was over 10 µM. For the compound `COC12CCC(NC(=O)c3cc(Cl)ccc3C(C)C)(CC1)CC2` [Compound 172], at TRPM8 [3], the Emax is over 100% and the EC50 was under 3 µM. On to `COC12CCC(NC(=O)[C@H]3CCC[C@@H](NC(C)=O)C3)(CC1)CC2` [Compound 173], for which the EC50 at TRPM8 [3] is over 10 µM. On the same count and under the same terms, for `COc1ccc(NC(=O)c2cccc(C(F)(F)F)c2)cc1` [Compound 174] the value was over 10 µM; for `COc1ccc(NC(=O)[C@H]2CCC[C@@H](O)C2)cc1` [Compound 177], over 10 µM. With `C=C(C)[C@@H]1CC[C@@H](C)C[C@H]1O` [Coolact P], the EC50 in experiment [1] was 66 ± 20 µM.

In the case of `CC(O)C(=O)O[C@@H]1C[C@H](C)CC[C@H]1C(C)C` (stereo partly shown) [FrescolatML], the EC50 in experiment [1] was 3.3 ± 1.5 µM. As to `C[C@@H]1CC[C@@H](C(C)(C)O)[C@H](O)C1` [PMD38], the EC50 in experiment [1] was 31 ± 1.1 µM. For `CCNC(=O)C1CC(C)CCC1C(C)C` (stereo not shown) [WS-3], in experiment [1], the EC50 was 3.7 ± 1.7 µM. Turning to `CNC(=O)C(C)(C(C)C)C(C)C` [WS-23], the EC50 in experiment [1] is 44 ± 7.3 µM. On to `Oc1cc2c(cc1O)CN(C(=S)NCCc1ccc(Cl)cc1)CCC2` [capsazepine], for which the IC50 on TRPM8 [2] is 18 ± 1.1 µM. Regarding `CC1CCC(C(C)C)C(OCC(O)CO)C1` (stereo not shown) [cooling agent 10], the EC50 in experiment [1] was 6 ± 2.2 µM. In the case of `CC12CCC(CC1)C(C)(C)O2` [eucalyptol], the EC50 in experiment [1] was 7700 ± 2000 µM. As for `CC1CCC(C(C)C)C2(C1)OCC(CO)O2` (stereo not shown) [frescolatMAG], the 50% effective concentration (EC50) in experiment [1] was 4.8 ± 1.1 µM. Consider `CC(C)=CCC/C(C)=C/CO` [geraniol], for which the EC50 in experiment [1] is 5900 ± 1600 µM. For `CC(CC=O)CCCC(C)(C)O` (stereo not shown) [hydroxycitronellal], the EC50 in experiment [1] is 19600 ± 2200 µM. Turning to `O=C1NC(c2cccc([N+](=O)[O-])c2)=CCN1c1ccccc1O` [icilin], on TRPM8 [4], the EC50 was 0.028 µM.

`C=CC(C)(O)CCC=C(C)C` (stereo not shown) [linalool]: the EC50 in experiment [1] is 6700 ± 2000 µM. Regarding `CC(C)(C)c1ccc(NC(=S)N2CCN(c3ncccc3Cl)CC2)cc1` [thio-BCTC], the IC50 at TRPM8 [2] was 3.5 ± 1.1 µM.
